In patent US20240294551A1 (AMGEN INC., priority 2022, published 2024) one finds IC50 data, which are given here for twelve compounds.

The test system of assay [1] is Phosphorylation of ERK1/2 in AsPC-1 cells. As to the kind of experiment: Phospho-ERK1/2 MSD Assay. Format: cell-based, human. As to conditions: Homo sapiens, ASPC1, 2 h. The essentials:
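Read-out: MSD electrochemiluminescent detection of phosphorylated ERK1/2 in whole-cell lysates, fitted to a 4-parameter logistic curve for IC50. Prior to lysis, AsPC-1 cells (25,000 per well) received a 2 h compound dose-response at 37 °C.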

The target in assay [2] is His-tagged KRAS G12D protein (Homo sapiens (Human), UniProt P01116, G12D). In words: KRAS G12D TR-FRET Assay. The assay is classed as binding. The essentials:
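Each incubation ran at room temperature: enzyme with compound for 30 minutes, peptide for one hour, and detection reagents (0.4 nM europium anti-6×His, 5 nM streptavidin-d2) for one hour more. Protein and peptide stocks were each diluted to 20 nM before addition.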
In general terms: In TR-FRET formats the signal depends on donor and acceptor labels being close together.

The next assay concerns MIA PaCa-2 cells. In words: MIA PaCa-2 CTG Assay (CellTiter-Glo cell viability). The assay is classed as cell-based, human. As to conditions: Homo sapiens, second value of the cell. The essentials: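 IC50 values come from a 4-parameter logistic fit of CellTiter-Glo luminescence, normalized to DMSO control, after 72 h compound exposure at 37° C, 5% CO2. Cells grew in RPMI 1640 plus 10% FBS and were seeded at 1.67E+04 cells/mL one night before dosing.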

The next assay concerns AsPC-1 cells. As to the kind of experiment: AsPC-1 CTG Assay (CellTiter-Glo cell viability). As to conditions: Homo sapiens, ASPC1, 72 h, first value of the cell, read-out: G12D/C/V Cell Proliferation CTG (72 h) AsPC-1. Format: cell-based, human. An outline of the steps: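 IC50 values derive from 4-parameter logistic fits of CellTiter-Glo luminescence, expressed relative to DMSO. Compound dilution series were applied to overnight-seeded AsPC-1 or SW620 cells (RPMI 1640, 10% FBS) for 72 h at 37 °C, 5% CO2.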
For orientation: In ATP-based viability assays light output follows the ATP content of the culture.

For assay [3], the target named is GDP-bound KRAS protein (aa 1-169), containing both G12D and C118A amino acid substitutions (Homo sapiens (Human), UniProt P01116, C118A/G12D). As to the kind of experiment: KRAS G12D Coupled Nucleotide Exchange Assay. The assay is classed as biochemical.
GDP-bound KRAS protein (aa 1-169), containing both G12D and C118A amino acid substitutions, sequence (P01116 other isoform, or with tags, fused parts or gaps G12D/C118A): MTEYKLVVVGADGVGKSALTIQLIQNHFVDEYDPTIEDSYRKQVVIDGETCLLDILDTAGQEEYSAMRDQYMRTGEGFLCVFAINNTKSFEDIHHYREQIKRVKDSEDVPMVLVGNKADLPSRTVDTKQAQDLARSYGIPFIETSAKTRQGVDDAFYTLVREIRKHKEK
[4] abbreviates: read-out: 2 h p-ERK (AsPC-1 cells), IC50.
Setting [5] is: read-out: KRAS G12D Binding IC50.
[6] abbreviates: Mia PaCa-2, 72 h, read-out: G12D/C/V Cell Proliferation CTG (72 h) Mia PaCa-2.
Where [7] appears, read: read-out: KRAS G12D Coupled Exchange IC50.
[8] abbreviates: read-out: 2 h p-ERK (AsPC-1 cells).
The mark [9] stands for this setting: TR-FRET, read-out: KRAS G12D Binding.
Where [10] appears, read: MIA PaCa-2 cells (G12C), 72 h, read-out: G12D/C/V Cell Proliferation CTG (72 h) MIA PaCa-2.
Setting [11] is: 2 hours compound pre-incubation, read-out: KRAS G12D Coupled Exchange.

Like-named read-outs stand apart in the source and are kept apart here.

His-tagged KRAS G12D protein, sequence (P01116 other isoform, or with tags, fused parts or gaps G12D): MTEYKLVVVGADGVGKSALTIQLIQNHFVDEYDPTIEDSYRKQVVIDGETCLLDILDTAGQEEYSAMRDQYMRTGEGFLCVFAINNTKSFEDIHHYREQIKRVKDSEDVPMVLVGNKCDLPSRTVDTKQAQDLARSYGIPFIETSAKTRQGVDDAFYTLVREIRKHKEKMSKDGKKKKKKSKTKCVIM

On to `CN1[C@H](COc2nc3c4cnc(c(F)c4n2)-c2c(c(Cl)cc4[nH]ncc24)CCCOC(=O)O[C@@H]2COCCN3C2)C[C@@H]2C[C@@H]21` [Example 330, (26S)-18-chloro-32-fluoro-4-(((1S,3S,5S)-2-methyl-2-azabicyclo[3.1.0]hexan-3-yl)methoxy)-23,25,28-trioxa-1,3,5,9,14,15-hexaazahexacyclo[24.4.1.1~6,10~.0~2,7~.0~11,19~.0~12,16~]dotriaconta-2,4,6,8,10(32),11,13,16,18-nonaen-24-one], for which the IC50 came out at 20 nM in assay [1] (setting [4]); 4 nM in assay [2] (setting [5]); 54 nM in the assay on MIA PaCa-2 cells (setting [6]); 128 nM with AsPC-1 cells (AsPC-1, 72 h); 2 nM in assay [3] (setting [7]).
The corresponding values for `CN1CCC[C@H]1COc1nc2c3cnc(c(F)c3n1)-c1c(c(Cl)cc3[nH]ncc13)CCCOC(=O)O[C@]1(CF)COCCN2C1` [Example 338, (26S)-18-chloro-32-fluoro-26-(fluoromethyl)-4-(((2S)-1-methyl-2-pyrrolidinyl)methoxy)-23,25,28-trioxa-1,3,5,9,14,15-hexaazahexacyclo[24.4.1.1~6,10~.0~2,7~.0~11,19~.0~12,16~]dotriaconta-2,4,6,8,10(32),11,13,16,18-nonaen-24-one] are 41.5 nM, 7 nM, 35 nM, 268 nM and 2 nM.
The corresponding values for `O=C1OCCCc2c(Cl)cc3[nH]ncc3c2-c2ncc3c(nc(OC[C@@]45CCCN4C[C@H](F)C5)nc3c2F)N2CCCC[C@](CF)(C2)O1` [Example 340, (26R)-18-chloro-32-fluoro-26-(fluoromethyl)-4-(((2R,7aS)-2-fluorotetrahydro-1H-pyrrolo[1,2-a]pyrrol-7a(5H)-yl)methoxy)-23,25-dioxa-1,3,5,9,14,15-hexaazahexacyclo[24.4.1.1~6,10~.0~2,7~.0~11,19~.0~12,16~]dotriaconta-2,4,6,8,10(32),11,13,16,18-nonaen-24-one] are 2.5 nM, 4 nM, 17 nM, 42 nM and 1 nM.
For `[2H]C([2H])([2H])[C@@]12COCCN(C1)c1nc(OC[C@@]34CCCN3C[C@H](F)C4)nc3c(F)c(ncc13)-c1c(c(Cl)cc3[nH]ncc13)CCCOC(=O)O2` [Example 353, (26S)-18-chloro-32-fluoro-4-(((2R,7aS)-2-fluorotetrahydro-1H-pyrrolo[1,2-a]pyrrol-7a(5H)-yl)methoxy)-26-(~2~H_3_)methyl-23,25,28-trioxa-1,3,5,9,14,15-hexaazahexacyclo[24.4.1.1~6,10~.0~2,7~.0~11,19~.0~12,16~]dotriaconta-2,4,6(32),7,9,11,13,16,18-nonaen-24-one] the same measures were 1.9 nM, 3 nM, 3 nM, 22 nM and 1 nM.
Take `C[C@@]12COCCN(C1)c1nc(OC[C@@]34CCCN3C[C@@H](F)C4)nc3c(F)c(ncc13)-c1c(c(Cl)cc3[nH]ncc13)CCCOC(=O)O2` [Example 359, (26S)-18-chloro-32-fluoro-4-(((25,7aS)-2-fluorotetrahydro-1H-pyrrolo[1,2-a]pyrrol-7a(5H)-yl)methoxy)-26-methyl-23,25,28-trioxa-1,3,5,9,14,15-hexaazahexacyclo[24.4.1.1~6,10~.0~2,7~.0~11,19~.0~12,16~]dotriaconta-2,4,6(32),7,9,11,13,16,18-nonaen-24-one]: the IC50 was found to be 101 nM in assay [1] (setting [4]); 12 nM in assay [2] (setting [5]); 107 nM in the assay with MIA PaCa-2 cells (setting [6]); 410 nM with AsPC-1 cells (AsPC-1, 72 h); 4 nM in assay [3] (setting [7]).
In the case of `O=C1OCCCc2c(Cl)cc3[nH]ncc3c2-c2ncc3c(nc(OC[C@@]45CCCN4C[C@@H](F)C5)nc3c2F)N2CCOC[C@H](C2)O1` [Example 360, (26S)-18-chloro-32-fluoro-4-(((25,7aS)-2-fluorotetrahydro-1H-pyrrolo[1,2-a]pyrrol-7a(5H)-yl)methoxy)-23,25,28-trioxa-1,3,5,9,14,15-hexaazahexacyclo[24.4.1.1~6,10~.0~2,7~.0~11,19~.0~12,16~]dotriaconta-2,4,6(32),7,9,11,13,16,18-nonaen-24-one], the IC50 in assay [1] (setting [4]) is 118 nM; in assay [2] (setting [5]) it was 10 nM; with MIA PaCa-2 cells (setting [6]), 344 nM; in the assay on AsPC-1 cells (AsPC-1, 72 h) it was 457 nM; in assay [3] (setting [7]) it was 3 nM.
`O=C1OCCc2c(F)ccc3cc(O)cc(c23)-c2ncc3c(nc(OC[C@@]45CCCN4C[C@H](F)C5)nc3c2F)N2CCOC[C@H](C2)O1` [Example 361, (16S)-23,32-difluoro-8-(((2R,7aS)-2-fluorotetrahydro-1H-pyrrolo[1,2-a]pyrrol-7a(5H)-yl)methoxy)-28-hydroxy-14,17,19-trioxa-3,7,9,11-tetraazahexacyclo[20.7.1.1~2,6~.1~11,16~.0~5,10~.0~26,30~]dotriaconta-1(30),2(32),3,5,7,9,22,24,26,28-decaen-18-one]: the IC50 in assay [1] (setting [4]) came to 0.4 nM; in assay [2] (setting [5]), 3 nM; in the assay with MIA PaCa-2 cells (setting [6]) it was 5 nM; in the assay on AsPC-1 cells (AsPC-1, 72 h), 7 nM; in assay [3] (setting [7]), 1 nM.
On to `C[C@@]12COCCN(C1)c1nc(OC[C@@]34CCCN3C[C@H](F)C4)nc3c(F)c(ncc13)-c1c3c(cc4[nH]ncc14)CC[C@H]3CCOC(=O)O2` [Example 365, (16S,22S)-34-fluoro-8-(((2R,7aS)-2-fluorotetrahydro-1H-pyrrolo[1,2-a]pyrrol-7a(5H)-yl)methoxy)-16-methyl-14,17,19-trioxa-3,7,9,11,28,29-hexaazaheptacyclo[20.9.1.1~2,6~.1~11,16~.0~5,10~.0~25,32~.0~27,31~]tetratriaconta-1(31),2(34),3,5,7,9,25(32),26,29-nonaen-18-one], for which the IC50 in assay [1] (setting [4]) was found to be 6.7 nM; in assay [2] (setting [5]), 3 nM; with MIA PaCa-2 cells (setting [6]), 11 nM; in the assay with AsPC-1 cells (AsPC-1, 72 h), 141 nM; in assay [3] (setting [7]) it was 1 nM.
With `O=C1OCC[C@@H]2CCc3cc4[nH]ncc4c(c32)-c2ncc3c(nc(OC[C@@]45CCCN4C[C@H](F)C5)nc3c2F)N2CCOC[C@H](C2)O1` [Example 367, (16S,22S)-34-fluoro-8-(((2R,7aS)-2-fluorotetrahydro-1H-pyrrolo[1,2-a]pyrrol-7a(5H)-yl)methoxy)-14,17,19-trioxa-3,7,9,11,28,29-hexaazaheptacyclo[20.9.1.1~2,6~.1~11,16~.0~5,10~.0~25,32~.0~27,31~]tetratriaconta-1(31),2(34),3,5,7,9,25(32),26,29-nonaen-18-one], the IC50 in assay [1] (setting [4]) was found to be 9.2 nM; in assay [2] (setting [5]) it was 4 nM; with MIA PaCa-2 cells (setting [6]), 26 nM; in the assay on AsPC-1 cells (AsPC-1, 72 h), 139 nM; in assay [3] (setting [7]), 2 nM.
Turning to `O=C1CCCCc2c(Cl)cc3[nH]ncc3c2-c2ncc3c(nc(OC[C@@]45CCCN4C[C@H](F)C5)nc3c2F)N2CCC[C@@H](C1)C2` [Example 372], the IC50 in assay [1] (setting [8]) came to 4.4 nM; in assay [2] (setting [9]), 3 nM; with MIA PaCa-2 cells (setting [10]), 20 nM; in the assay on AsPC-1 cells (AsPC-1 cells (G12D), 72 h), 17 nM; in assay [3] (setting [11]) it was 2 nM.
In the case of `Cc1cc2[nH]ncc2c2c1CCc1cnc(o1)[C@@H](O)[C@@H]1CCCN(C1)c1nc(OC[C@@]34CCCN3C[C@H](F)C4)nc3c(F)c-2ncc13` [Example 373], the IC50 in assay [1] (setting [8]) was determined as 7 nM; in assay [2] (setting [9]), 7 nM; in the assay with MIA PaCa-2 cells (setting [10]), 5 nM; in the assay on AsPC-1 cells (AsPC-1 cells (G12D), 72 h), 21 nM; in assay [3] (setting [11]), 3 nM.
`Fc1c2ncc3c(nc(OC[C@@]45CCCN4C[C@H](F)C5)nc13)N1CCC[C@@H](Cc3nnc(o3)CCc3c(Cl)cc4[nH]ncc4c3-2)C1` [Example 391, (18S)-9-chloro-31-fluoro-25-(((2R,7aS)-2-fluorotetrahydro-1H-pyrrolo[1,2-a]pyrrol-7a(5H)-yl)methoxy)-33-oxa-5,6,14,15,22,24,26,30-octaazaheptacyclo[25.3.1.1~13,16~.1~18,22~.0~2,10~.0~3,7~.0~23,28~]tritriaconta-1(31),2,4,7,9,13,15,23,25,27,29-undecaene]: the IC50 in assay [1] (setting [8]) is 36.3 nM; in assay [2] (setting [9]), 4 nM; in the assay with MIA PaCa-2 cells (setting [10]), 183 nM; in the assay with AsPC-1 cells (AsPC-1 cells (G12D), 72 h) it was 265 nM; in assay [3] (setting [11]) it was 2 nM.
